This is an account of results in US20220213052A1, “INHIBITORS OF RNA-BINDING PROTEINS, COMPOSITIONS THEREOF, AND THERAPEUTIC USES THEROF” (The University of North Carolina at Chapel Hill, priority 2019, published 2022).

In experiment [1] the test system is colon cancer cell line HCT116 β/W. The experiment is described as follows: Cytotoxicity assay (WST-8), HCT116 β/W. The class given is cell-based. The following applies: Homo sapiens, HCT-116, 96 h incubation. On the procedure: (§1) The cytotoxicity of various compounds of the present technology in several cancer cell lines (pancreatic cancer cell line MIAPaCa-2, triple-negative breast cancer cell line MDA-MB-231, and colon cancer cell lines HCT116, HCT116 β/W, and RKO) was assessed by a cytotoxicity assay. Cells were seeded in 96-well culture plates (3,000-5,000 cells/well) and treated with titrated compounds in triplicate. After 96 h incubation, cell growth medium was removed and proliferation reagent WST-8 (Sigma) was added to each well and incubated at 37° C. for 1-3 h. Absorbance was then measured with a plate reader at 450 nm with correction at 650 nm. The results were expressed as the percentage of absorbance of treated wells versus that of vehicle control. IC50, the drug concentration causing 50% growth inhibition, was calculated via sigmoid curve fitting using GraphPad Prism 5.0. The results for those compounds tested against MIAPaCa-2 and MDA-MB-231 are provided in Table 1; the results for those compounds tested against colon cancer cell lines HCT116, HCT116 β/W, and RKO are provided in Table 3.
In general terms: Tetrazolium assays rely on reduction of a dye to a coloured formazan, in cell work by metabolically active cells.

For experiment [2], the target named is Musashi 2 (Msi2) (Homo sapiens, UniProt Q96DH6). Description: Msi2 FP assay. The format is binding. Conditions: cell marked (RRM1), read-out: Msi2 (Ki) (RRM1).
Experiment [3] has as its system colon cancer cell line HCT116. Description: Cytotoxicity assay (WST-8), HCT116. Conditions: Homo sapiens, HCT-116, 96 h incubation. The class given is cell-based. The protocol: as §1
Experiment [4] has as its system MDA-MB-231 cells. The experiment is described as follows: Matrigel invasion assay. The following applies: 24 h pretreatment, 20 h incubation. The format is cell-based. The protocol: To examine the anti-metastatic effect of compounds of the present technology, an invasion assay using Matrigel Invasion Chambers coated with Matrigel Matrix was performed. To perform the assays, MDA-MB-231 cells pretreated with compounds for 24 hours are added to the chambers and then incubated for 20 hours. Cells that remained on the upper surface of the chamber are completely removed with a cotton swab. Cells that emigrated or invaded through the membrane/Matrigel to the bottom of the chamber were fixed and stained with 0.2% crystal violet and photographed.

The test system of experiment [5] is colon cancer cell line RKO. Description: Cytotoxicity assay (WST-8), RKO. The format is cell-based. The following applies: 96 h incubation. The protocol: as §1
The test system of experiment [6] is triple-negative breast cancer cell line MDA-MB-231. The experiment is described as follows: Cytotoxicity assay (WST-8), MDA-MB-231. The format is cell-based. The following applies: Homo sapiens, 96 h incubation. In short, it runs like this: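 Cells (3,000-5,000/well) were treated in triplicate with titrated compounds for 96 h, then WST-8 was added for 1-3 h at 37° C and absorbance read at 450 nm (650 nm correction). IC50 (50% growth inhibition vs vehicle) came from sigmoid curve fitting.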

For experiment [7], the system named is HuR targets in MDA-MB-231 cells. Description: Western blot analysis of HuR targets and cell death markers. The format is cell-based. The text has this:
As HuR promotes stability of its target mRNAs, it is expected that HuR-inhibitors will block HuR function and shorten the half-life (t1/2) of target mRNAs. mRNA stability will be determined via quantitative real-time PCR (qRT-PCR) after co-treatment of compounds of the present technology and Actinomycin D (a transcription inhibitor). Because HuR also increases the translation of target mRNAs, the effect of compounds of the present technology on protein levels of HuR targets was probed by Western blot analysis.
(In general: Immunoblotting shows a protein as a band on a membrane.)

The subject of experiment [8] is colon cancer cell line SW480. Description: Cytotoxicity assay (WST-8), SW480. The format is cell-based. The following applies: Homo sapiens, 96 h incubation.
Experiment [9] concerns the target T1, RNA-binding protein Lin-28 homolog B (LIN28B) (Homo sapiens, UniProt Q6ZN17).
T1 sequence (Q6ZN17 1-250): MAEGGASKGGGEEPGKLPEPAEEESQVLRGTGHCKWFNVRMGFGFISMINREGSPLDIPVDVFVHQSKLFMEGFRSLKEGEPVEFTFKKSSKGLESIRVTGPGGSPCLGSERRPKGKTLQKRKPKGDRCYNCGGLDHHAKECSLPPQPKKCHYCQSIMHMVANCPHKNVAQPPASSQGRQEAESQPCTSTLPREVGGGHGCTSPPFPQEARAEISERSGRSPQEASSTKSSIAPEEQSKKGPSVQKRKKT
The experiment is described as follows: LIN28B FP assay.

Experiment [10] deals with T2, full-length human HuR protein (Homo sapiens, UniProt Q15717).
T2 construct: full-length human HuR protein was produced by the KU COBRE-PSF Protein Purification Group; made in house
Description: FP assay of HuR-Msi1 ARE binding inhibition. Conditions: HuR-Msi1 ARE interaction; read-out: HuR Ki via FP assay. In short, it runs like this:
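Fluorescence polarization competition using full-length human HuR protein and a 3′-fluorescein-labelled 16-nt Msi1 ARE RNA. A fluorescein-labelled degenerate 16-nt RNA served as negative control.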

In experiment [11] the test system is pancreatic cancer cell line MIAPaCa-2. The experiment is described as follows: Cytotoxicity assay (WST-8), MIAPaCa-2. The format is cell-based. Conditions: Homo sapiens, MIA PaCa-2, 96 h incubation. The protocol: as §1
Experiment [12] deals with Msi1 (Homo sapiens, UniProt O43347). Description: Msi1 FP assay. The class given is binding.
Experiment [13] deals with T3, HuR-bound target mRNAs in MDA-MB-231 cells (Homo sapiens, UniProt Q15717).
T3 construct: endogenous in cells; host or cells: MDA-MB-231
The experiment is described as follows: Ribonucleoprotein immunoprecipitation (RNP-IP) pull-down assay. The format is cell-based. Conditions: 5 μM. The protocol:
Pull-down Assay #2—Ribonuleoprotein Immunoprecipitation (RNP-IP): Cells with HuR overexpression were treated with compounds, then the cell cytoplasmic lysates collected using NE-PER Nuclear and Cytoplasmic Extraction Kit (Thermo Scientific), then the cell cytoplasmic lysates incubated with anti-HuR antibody, and subsequently Protein G agarose beads (from Roche) added to pull down HuR protein. The HuR-bound target mRNAs pulled down were measured by qRT-PCR using a reported method (Ji, Q., et al., MicroRNA miR-34 inhibits human pancreatic cancer tumor-initiating cells. PLoS One, 2009. 4(8): p. e6816, incorporated herein by reference). Mouse IgG will be used as negative control. Compounds of the present technology block the target mRNAs pulled down by HuR antibody.

Experiment [14] relates to MDA-MB-231 HuR knockout clones (HuR KO1 and HuR KO2). Description: Cytotoxicity against HuR knockout clones of MDA-MB-231. The class given is cell-based. Conditions: HuR KO1 and HuR KO2 vs MDA-MB-231 and sgControl. The protocol: as §1
The cytotoxicity of KH-39 and KH-58 against HuR knockout clones was probed by the same assay as described above. […]

In experiment [15] the target is T4, HuR protein bound to ARE^Msi1-Biotin (Homo sapiens, UniProt Q15717).
T4 construct: endogenous in cells; cytoplasmic lysate
The experiment is described as follows: RNA immunoprecipitation (RNA-IP) pull-down assay. The class given is cell-based. Conditions: 10 μM. On the procedure:
Pull-down Assay #1—RNA Immunoprecipitation (RNA-IP): Cells with HuR overexpression will be treated with compounds, then the cell cytoplasmic lysates were collected using NE-PER Nuclear and Cytoplasmic Extraction Kit (Thermo Scientific), and subsequently to the cell cytoplasmic lysates were added the biotinylated target ARE oligo from Msi1 mRNA (ARE^Msi1-Biotin). Following this, streptavidin beads were added to pull down HuR protein bound to ARE^Msi1-Biotin. Unlabeled target AREs used as positive control. Compounds of the present technology block the HuR pull-down by the biotinylated ARE oligo, illustrating inhibition of the HuR-mRNA interaction. For example, using 20 μM KH-39, 20 μM KH-56, and 10 μM KH-58 in such a RNA-IP assay provided the data illustrated in FIG. 5. The numbers immediately below the pictured bands in FIG. 5 are calculated by diving the band intensity of the particular sample by the band intensity of the DMSO treated sample (entry 3). […]

The test system of experiment [16] is PC3 cells. Description: mRNA level of HuR target Msi2 after docetaxel treatment. The class given is cell-based. From the text: FIGS. 1A-F provide the results of studies illustrating RNA-binding protein Hu antigen R (HuR) is involved in chemo/radiation-induced tumor response. […] HuR knock-down by siRNA sensitized cancer cells to X-ray radiation, with an enhancement ratio (ER) of 1.5 versus the negative control (NC) siRNA (FIG. 1F).

The test system of experiment [17] is MDA-MB-231 mouse xenograft. Description: MDA-MB-231 mouse xenograft model, KH-39 alone and with docetaxel. The following applies: after three-week treatment; KH-39 i.p. 50 mg/kg 5 times per week; TXT i.v.; ***P<0.001, ****P<0.0001, n=12. The format is in vivo, mice. The text has this: Cytotoxicity assays (as described earlier in this disclosure) for various cancer cell lines will also be performed utilizing concentrations of a compound of the present technology that are below the lethal threshold for the compound for the particular cancer (a “sub-lethal concentration”) in combination with a chemotherapeutic compound (e.g., docetaxel or doxorubicin) to illustrate compounds of the present technology sensitize cancer cell lines to chemotherapy. By way of illustration in an in vivo model, in vivo antitumor efficacy of KH-39 was examined in combination with docetaxel (a first-line chemotherapy for human breast cancer) in a MDA-MB-231 mouse xenograft model. For this, tumor-bearing female athymic mice were provided according to the protocols described earlier in the present disclosure and were randomized into four groups. One group of mice was treated with KH-39 (i.p. 50 mg/kg, 5 times per week), one group with docetaxel (TXT; i.v. at the dosages and time intervals indicated in FIG. 12), one group with a combination of KH-39 and TXT (KH-39 i.p. 50 mg/kg, 5 times per week and TXT i.v. at the dosages and time intervals indicated in FIG. 12), and one group of mice as the vehicle control. FIG. 12 illustrates the results, providing the tumor growth curves for each group.

What is called IC50 is the concentration needed to halve the response being measured. Read a high IC50 as lower potency. One may read the Ki as the dissociation constant of the complex between target and ligand, obtained from inhibition or displacement.

T2 sequence (Q15717 whole entry): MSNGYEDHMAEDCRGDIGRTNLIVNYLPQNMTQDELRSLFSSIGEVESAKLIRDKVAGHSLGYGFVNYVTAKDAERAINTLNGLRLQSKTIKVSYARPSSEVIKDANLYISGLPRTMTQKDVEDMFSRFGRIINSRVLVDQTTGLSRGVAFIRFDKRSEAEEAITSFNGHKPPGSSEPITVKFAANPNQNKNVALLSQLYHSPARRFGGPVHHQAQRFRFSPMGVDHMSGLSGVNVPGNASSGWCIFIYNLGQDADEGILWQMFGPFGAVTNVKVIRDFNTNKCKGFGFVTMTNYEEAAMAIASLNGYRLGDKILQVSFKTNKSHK
Chain of Musashi 2 (Msi2) (Q96DH6 whole entry, species assumed): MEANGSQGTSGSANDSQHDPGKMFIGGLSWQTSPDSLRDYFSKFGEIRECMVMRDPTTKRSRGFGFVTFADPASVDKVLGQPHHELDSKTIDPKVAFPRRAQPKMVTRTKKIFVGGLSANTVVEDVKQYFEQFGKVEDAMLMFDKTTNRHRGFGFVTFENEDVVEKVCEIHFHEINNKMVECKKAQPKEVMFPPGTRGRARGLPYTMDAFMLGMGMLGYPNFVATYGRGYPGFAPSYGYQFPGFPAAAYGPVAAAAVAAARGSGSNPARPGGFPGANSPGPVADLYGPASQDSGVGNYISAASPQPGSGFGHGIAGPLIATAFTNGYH
Chain of Msi1 (O43347 whole entry, species assumed): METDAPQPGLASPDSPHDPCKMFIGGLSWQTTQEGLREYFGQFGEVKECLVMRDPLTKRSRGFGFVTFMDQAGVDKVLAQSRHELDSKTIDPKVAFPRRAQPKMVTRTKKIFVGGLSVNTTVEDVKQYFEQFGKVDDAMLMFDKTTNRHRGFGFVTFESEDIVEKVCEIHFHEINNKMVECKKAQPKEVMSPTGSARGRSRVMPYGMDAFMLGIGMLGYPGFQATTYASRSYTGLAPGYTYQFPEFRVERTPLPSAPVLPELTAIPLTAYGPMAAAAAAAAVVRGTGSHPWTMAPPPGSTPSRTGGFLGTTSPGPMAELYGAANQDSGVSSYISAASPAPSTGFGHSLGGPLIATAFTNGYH
T4 sequence (Q15717 2-326 limits assumed): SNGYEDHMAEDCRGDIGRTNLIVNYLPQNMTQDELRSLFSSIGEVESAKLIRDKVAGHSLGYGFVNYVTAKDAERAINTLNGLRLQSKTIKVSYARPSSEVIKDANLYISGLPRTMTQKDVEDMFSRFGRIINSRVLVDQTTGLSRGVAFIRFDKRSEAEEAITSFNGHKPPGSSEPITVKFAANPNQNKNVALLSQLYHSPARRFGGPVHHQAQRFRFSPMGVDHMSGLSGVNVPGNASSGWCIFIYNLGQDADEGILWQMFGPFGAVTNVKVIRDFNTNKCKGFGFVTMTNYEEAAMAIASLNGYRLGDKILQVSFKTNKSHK
T3 sequence (Q15717 2-326 limits assumed): as above

For the compound `CC(C)(C)c1ccc(C(=O)Nc2ccc3sc(/C=C/C(=O)NO)cc3c2)cc1` [KH-19, (E)-4-(tert-butyl)-N-(2-(3-(hydroxyamino)-3-oxoprop-1-en-1-yl)benzo[b]thiophen-5-yl)benzamide], the IC50 in experiment [1] came out at 2630 nM; in experiment [3], 2220 nM; in experiment [5], 4480 nM; in experiment [6], 1330 nM; in experiment [8] it was 5140 nM; in [11], 2340 nM. Besides, the Ki in experiment [2] came to 450 nM; in experiment [9] it was 3200 nM; in [10] it was 150 nM; in experiment [12], 1970 nM. Moreover, in experiment [4] (concentrations indicated in FIG. 8), the MDA-MB-231 cell invasion entry is given as “inhibited MDA-MB-231 cell invasion”. Moreover, in experiment [7], the “cell death mechanisms: PARP cleavage, LC3 conversion, RIP3 activation” value was “induced cell death through apoptosis, autophagy and necroptosis”. Further, the “protein levels of HuR targets” value in experiment [7] was “decreased the protein levels of HuR targets”.
Take `CN(C)c1ccc(C(=O)Nc2ccc3sc(C(=O)NO)cc3c2)cc1` [KH-58, 5-(4-(dimethylamino)benzamido)-N-hydroxybenzo[b]thiophene-2-carboxamide]: the inhibition constant Ki in experiment [2] stood at 3350 nM; in experiment [9] it was 4570 nM; in experiment [10] it was 610 nM. For the same compound, the MDA-MB-231 cell invasion entry in experiment [4] (5 μM) is listed as “clearly inhibited MDA-MB-231 cell invasion”. Moreover, in experiment [13], the “HuR pull-down of target mRNAs” value was “at least partially block HuR pull-down of target mRNAs”. This compound also returned a half-inhibitory concentration (IC50) in experiment [6] of 1310 nM. Further, the “IC50 of HuR KO clones versus parental cells and vector control cells” value in experiment [14] is “two to three folds higher IC50 values”. For the same compound, the “ARE^Msi1-Biotin mediated pull-down of HuR protein” value in experiment [15] was “block ARE^Msi1-Biotin mediated pull-down of HuR protein”.
In the case of `CC(=O)O[C@@]12CO[C@@H]1C[C@H](O)[C@@]1(C)C(=O)[C@H](O)C3=C(C)[C@@H](OC(=O)[C@H](O)[C@@H](NC(=O)OC(C)(C)C)c4ccccc4)C[C@@](O)([C@@H](OC(=O)c4ccccc4)[C@H]21)C3(C)C` [docetaxel, reference compound], the “mRNA levels of HuR target Musashi 2 (Msi2)” value in experiment [16] is on record as “increased the mRNA levels of HuR target Musashi 2 (Msi2)”. In addition, in [17], the “relative tumor sizes versus control group” value was “significantly smaller than those in control group”.
